For this assay, the system named is Blattalla germanica. The experiment in a line: Test Example 5: filter paper with sucrose bait, Blattalla germanica male imagoes. Type of assay: in vivo. The note with it: 500 ppm active ingredient, 0.7 ml on filter paper; 2 male imagoes; after 6 days. Here is the method: A formulation of any one of the present compounds (1t), (1c), (3), (4), (7) and (8) obtained according to Formulation Example 16 was diluted with water to prepare a test solution having 500 ppm of the active ingredient.
A filter paper having a diameter of 5.5 cm was spread on the bottom of a polyethylene cup having a diameter of 5.5 cm and 0.7 ml of the test solution was added dropwise onto the filter paper. As a bait, 30 mg of sucrose was uniformly placed on the filter paper. Into the polyethylene cup, 2 male imagoes of Blattalla germanica were released and the cup was sealed with a lid. After 6 days, the number of surviving or dead Blattalla germanica was counted and the death rate of the pest was calculated.
With `C#CC1(F)CCC(CC(C#N)(C#N)CCC(F)(F)F)CC1` (stereo not drawn) [(3)], the pest death rate was 100%.

Consider `C#CC12CCC(CC(C#N)(C#N)CCC(F)(F)F)CC1O2` (stereo not drawn) [(4)], for which the pest death rate is reported as 100%.

`CON=C1CCC(CC(C#N)(C#N)CCC(F)(F)F)CC1` (stereo not drawn) [(8)]: the pest death rate came to 100%.

For the compound `C#CC1(F)CCC(CCC(C#N)(C#N)CCC(F)(F)F)CC1` (stereo not drawn) [(7)], the pest death rate is reported as 100%.

Take `C#C[C@H]1CC[C@H](CC(C#N)(C#N)CCC(F)(F)F)CC1` [(1t)]: the pest death rate is given as 100%.

On to `C#C[C@H]1CC[C@@H](CC(C#N)(C#N)CCC(F)(F)F)CC1` [(1c)], for which the pest death rate stood at 100%.

These data come from patent publication US8344163B2, “Nitrile compound and its use for control of arthropod pest” (Sumitomo Chemical Company, Limited, priority 2008, dated 2013).
